Reference: paper PMC11582565, “Allostery can convert binding free energies into concerted domain motions in enzymes” (Nature Communications, 2024)

Assays:
Assay type in all cases: binding
[1] = molecular target: T1, adenylate kinase (AK_2+, AK) (Escherichia coli, UniProt P69441); assay: single-molecule nanopore (ClyA-AS) recording, Hill fit of LID-closed fraction; conditions: minor component; type II blockades (12 ± 6% of blockades, alternative conformer); Hill coefficient 1.7; 400 mM KCl, 15 mM Tris, 2 mM MgCl2, pH 7.5, 22 °C, -90 mV
T1 construct: gene adk; full-length AK (214 residues) with C-terminal extension GKK plus Strep-tag WSHPQFEK kept; pET22b, E. coli BL21(DE3); single enzyme trapped in ClyA-AS nanopore
T1 sequence (P69441 whole entry): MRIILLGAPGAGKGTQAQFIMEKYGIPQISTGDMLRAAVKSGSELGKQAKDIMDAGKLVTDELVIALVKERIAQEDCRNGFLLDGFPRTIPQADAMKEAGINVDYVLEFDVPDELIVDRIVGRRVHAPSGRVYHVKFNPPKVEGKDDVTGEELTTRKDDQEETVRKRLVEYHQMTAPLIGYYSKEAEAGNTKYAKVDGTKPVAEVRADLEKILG

[2] = molecular target: T1, adenylate kinase (AK_2+, AK); assay: as above
[3] = molecular target: T1, adenylate kinase (AK_2+, AK); assay: single-molecule nanopore (ClyA-AS) recording, ligand-induced current levels M1-M4; conditions: inhibitor; added cis or trans; 400 mM KCl, 15 mM Tris, 2 mM MgCl2, pH 7.5, 22 °C, -90 mV

Row | KD [1] [µM] | Kd [2] [µM] | Compound | single-molecule nanopore (ClyA-AS) recording, ligand-induced current levels M1-M [3]
1 | 123.2 ± 18.1 | 45.4 ± 1.6 | Nc1ncnc2c1ncn2[C@@H]1O[C@H](COP(=O)(O)OP(=O)(O)O)[C@@H](O)[C@H]1O [ADP] | –
2 | – | – | Nc1ncnc2c1ncn2[C@@H]1O[C@H](COP(=O)(O)OP(=O)(O)OP(=O)(O)OP(=O)(O)OP(=O)(O)OC[C@H]2O[C@@H](n3cnc4c(N)ncnc43)[C@H](O)[C@@H]2O)[C@@H](O)[C@H]1O [Ap5A, P^1,P^5-Di-(adenosine-5’)-pentaphosphate] | The addition of Ap5A to either the cis or trans side of the nanopore induced
